The CheMixHub ionic liquid set

Assay: xn = mol fraction of the nth substance listed

CCOS(=O)(=O)[O-].CC[NH+]=C(N(C)C)N(C)C + CCCO
100 kPa, x2 = 0
Conditions	viscosity [mPa·s]
293.15 K	670
323.15 K	91

CCCC[N+](C)(CCCC)CCCC.N#C[N-]C#N + CC[n+]1ccn(C)c1.N#C[N-]C#N
viscosity [mPa·s], 101 kPa
Conditions	303.15 K	333.15 K	343.15 K	353.15 K
x2 = 0.2114	109.5	–	20.6	15.38
x2 = 0.3975	–	19.3	–	11.19
x2 = 0.6047	33	–	–	–

CCCO + CC[n+]1ccn(CCOC)c1.N#C[S-]
100 kPa, x2 = 0
Conditions	viscosity [mPa·s]
288.15 K	2.49
293.15 K	2.2
298.15 K	1.95
303.15 K	1.732
308.15 K	1.545
313.15 K	1.382
318.15 K	1.24

CC[N+](CC)(CC)CC.[Cl-] + CC1(C)CC(O)CC(C)(C)N1[O] + O
Conditions	electrical conductivity [S/m]
323.15 K, 100 kPa, frequency 0.001 MHz, x2 = 0, x1 = 0.2	4.1

CCCC[N+](C)(CCCC)CCCC.[Cl-] + N[C@@H](Cc1ccccc1)C(=O)O + O
viscosity [mPa·s], 101.3 kPa
Conditions	293.15 K	298.15 K	303.15 K	308.15 K	313.15 K
x2 = 0, x1 = 0.00144	–	–	–	–	0.7
x2 = 0.0003636, x1 = 0.00072	0.99	0.89	0.76	0.67	–
x2 = 0.0003667, x1 = 0.001439	0.98	0.9	0.78	0.79	0.71
x2 = 0.000726, x1 = 0.0007198	1	0.9	0.77	0.68	–
x2 = 0.0007319, x1 = 0.001438	0.99	0.91	0.8	0.8	0.72
x2 = 0.00109, x1 = 0.0007195	1.02	0.92	0.78	0.69	–
x2 = 0.001099, x1 = 0.001438	1.01	0.92	0.81	0.81	0.74
x2 = 0.001452, x1 = 0.0007192	1.03	0.93	0.79	0.71	–
x2 = 0.001466, x1 = 0.001437	1.02	0.94	0.82	0.83	0.75
x2 = 0.001813, x1 = 0.000719	1.04	0.94	0.81	0.72	–
x2 = 0.001828, x1 = 0.001437	1.03	0.95	0.84	0.84	0.76
x2 = 0.002175, x1 = 0.0007187	1.06	0.96	0.82	0.73	–
x2 = 0.002194, x1 = 0.001436	1.05	0.96	0.85	0.85	0.78
x2 = 0.002538, x1 = 0.0007185	1.07	0.97	0.83	0.75	–
x2 = 0.002562, x1 = 0.001436	1.06	0.98	0.86	0.87	0.79

CCCO + CC[n+]1ccccc1.N#C[N-]C#N
Conditions	viscosity [mPa·s]
288.15 K, 100 kPa, x1 = 1	2.51
